In ChEMBL document CHEMBL1949534, “Two-step bioorthogonal activity-based proteasome profiling using copper-free click reagents: a comparative study” (Bioorg Med Chem, 2012):
Calls of active or inactive are those of the source.

Columns and labels:
[1] = system: Proteasome; assay: Binding affinity to proteasome in azido-BODIPY-epoxomicin treated HEK293T cell lysates at 5 uM after 1 hr by SDS-PAGE-based fluorescence analysis; assay type: subcellular; settings: Homo sapiens, HEK-293T
[2] = system: Proteasome; assay: Binding affinity to proteasome in azido-BODIPY-epoxomicin treated HEK293T cell lysates at 0.5 uM at 0 degC by SDS-PAGE-based fluorescence analysis; assay type: subcellular; settings: Homo sapiens, HEK-293T
[3] = system: HeLa; assay: Binding affinity to proteasome in human HeLa cells assessed as fluorescence at 0.5 uM pretreated with azido-BODIPY-epoxomicin for 2 hrs followed by 4 hrs of incubation with compound measured post washing by SDS-PAGE-based Western blot analysis
[4] = system: Proteasome; assay: Binding affinity to proteasome in azido-BODIPY-epoxomicin treated HEK293T cell lysates at 1 to 100 uM after 1 hr by Western blot analysis with streptavidin-HRP; assay type: subcellular; settings: Homo sapiens, HEK-293T
[5] = system: Proteasome; assay: Binding affinity to proteasome in azido-BODIPY-epoxomicin treated HEK293T cell lysates at 0.5 uM at 37 degC after 30 mins by SDS-PAGE-based fluorescence analysis; assay type: subcellular; settings: Homo sapiens, HEK-293T
[6] = system: Proteasome; assay: Binding affinity to proteasome in azido-BODIPY-epoxomicin treated HEK293T cell lysates at 50 uM at 0 degC by SDS-PAGE-based fluorescence analysis; assay type: subcellular; settings: Homo sapiens, HEK-293T
[7] = system: Proteasome; assay: Binding affinity to proteasome in azido-BODIPY-epoxomicin treated HEK293T cell lysate at 50 uM at 37 degC up to 4 hrs by SDS-PAGE-based fluorescence analysis; assay type: subcellular; settings: Homo sapiens, HEK-293T
[8] = system: HeLa; assay: Binding affinity to proteasome in human HeLa cells assessed as fluorescence at 100 uM pretreated with azido-BODIPY-epoxomicin for 2 hrs followed by 4 hrs of incubation with compound measured post washing by SDS-PAGE-based Western blot analysis
[9] = system: Proteasome; assay: Binding affinity to proteasome in azido-BODIPY-epoxomicin treated HEK293T cell lysates at 5 uM at 0 degC by SDS-PAGE-based fluorescence analysis; assay type: subcellular; settings: Homo sapiens, HEK-293T
[10] = system: HeLa; assay: Binding affinity to proteasome in human HeLa cells assessed as fluorescence at 5 uM pretreated with azido-BODIPY-epoxomicin for 2 hrs followed by 4 hrs of incubation with compound measured post washing by SDS-PAGE-based Western blot analysis
[11] = system: Proteasome; assay: Binding affinity to proteasome in azido-BODIPY-epoxomicin treated HEK293T cell lysates at 50 to 100 uM after 1 hr by SDS-PAGE-based fluorescence analysis; assay type: subcellular; settings: Homo sapiens, HEK-293T
[12] = system: Proteasome; assay: Binding affinity to proteasome in azido-BODIPY-epoxomicin treated HEK293T cell lysates at 5 uM at 37 degC up to 4 hrs by SDS-PAGE-based fluorescence analysis; assay type: subcellular; settings: Homo sapiens, HEK-293T
[13] = system: Proteasome; assay: Binding affinity to proteasome in azido-BODIPY-epoxomicin treated HEK293T cell lysates at 5 uM at 37 degC after 2 hrs by SDS-PAGE-based fluorescence analysis; assay type: subcellular; settings: Homo sapiens, HEK-293T

Measured: Activity

O=C(CCCC[C@@H]1SC[C@@H]2NC(=O)N[C@@H]21)NCCOCCOCCOCCNC(=O)OC1Cc2ccccc2C#Cc2ccccc21 (stereo partly drawn)
active: [1] | [2] | [3] | [4] | [5]

COC(=O)c1ccc(C(=O)NCCOCCOCCNC(=O)CCCC[C@@H]2SC[C@@H]3NC(=O)N[C@@H]32)cc1P(c1ccccc1)c1ccccc1
active: [6] | [7] | [8]

O=C(CCCC[C@@H]1SC[C@@H]2NC(=O)N[C@@H]21)NCCOCCOCCNC(=O)C1(F)C#CCCCCC1 (stereo partly drawn)
active: [9] | [10] | [11] | [4] | [12]

O=C(CCCC[C@@H]1SC[C@@H]2NC(=O)N[C@@H]21)NCCOCCOCCOCCNC(=O)OC[C@@H]1[C@@H]2CCC#CCC[C@@H]21
active: [9] | [10] | [11] | [4] | [13]
